Experiments:
[1] = system: isolated Guinea Pig heart muscles; experiment: Effects of compounds on contractile response of isolated Guinea Pig heart muscles (right ventricular papillary muscles); details: Cavia porcellus, read-out: Contractilities; for activation at 100 µM: Concentration 10^-4 M; for activation at 10 µM: Concentration 10^-5 M; for activation at 1 µM: Concentration 10^-6 M
Description: Effects of compounds on contractile response of isolated Guinea Pig heart muscles
Male guinea pigs weighing 300 to 500 g were stunned with a blow on the head and exsanguinated. The chest was opened rapidly, the heart was excised and papillary muscles from the right ventricle were excised.
The preparations were mounted in 10 ml organ bath which were filled with Krebs-Henseleit solution maintained at 36° C. and oxygenated with 95% O2 -5% CO2.
Right ventricular papillary muscles were stimulated electrically at a rate of 1 Hz by a suprathreshold (1.2×threshold) rectangular pulse 3 ms in duration. The resting tension applied to the papillary muscles was adjusted to produce maximum developed tension. The developed tension was recorded isometrically by means of force-displacement transducer. The text compounds were dissolved in diluted hydrochloric acid and were added to the bath. Contractility after administration was compared to that prior to administration.
The test compounds are those prepared in the examples later described.

Anesthetized Dog = experiment: Effect of compounds on cardiac contractility, heart rate and blood pressure in Anesthetized Dog; format: in vivo, mongrel dogs; details: intravenous
Description: Effect of compounds on cardiac contractility in Anesthetized Dog
Using male and female mongrel dogs subjected to artificial respiration and anesthetized by inhalation of Halothane cardiotonic effect of compounds was examined. The aortic pressure and the left ventricular pressure were recorded with a catheter inserted from the femoral artery into the aorta of the chest and with a micro tip pressure transducer (Millar) inserted from the carotid into the left ventricle, respectively. The heart rate was monitored by means of a tachograph triggered by the left ventricular pressure pulse. As an index of cardiac contractility, a primary differentation (LV dp/dt max) of the left ventricular pressure pulse was recorded. The test compounds were dissolved in physiological saline or diluted hydrochloric acid or polyethylene glycol and the solutions were intravenously given through the catheter inserted into the femoral vein.
Percent changes by the test compounds in cardiac contractility, heart rate and blood pressure obtained by the foregoing method are shown in Table 2, when compared to those prior to administration of the test compounds. In Table 2, the test compounds are those prepared in the examples later described.

mice = experiment: Acute toxicity test by oral administration in mice; format: in vivo; details: 3 g/kg, 4 in each group
Description: (§1) Acute toxicity was tested by oral administration in rats and mice. The results reveal that the compounds of the present invention have extremely low toxicity.

rats = experiment: Acute toxicity test by oral administration in rats; format: in vivo; details: 3 g/kg, 4 in each group
Description: as §1

[2] = system: coronary and femoral blood flow; experiment: Effect of compounds on coronary and femoral blood flow in anesthetized dogs; format: in vivo, mongrel dogs; details: intraarterial
Description: Effect of compounds on coronary and femoral blood flow
Using male and femal mongrel dogs thoracotomized at the left 4th intercostal space under artificial respiration and inhalation anesthesia with Halothane, effect of coronary and femoral blood flow was examined by intrarterial administration. By placing an electromagnetic flowprobe around the left circumflex coronary artery and the femoral artery, the blood flows of both arteries were measured. Shallow catheters were inserted in and fixed to the arterial branch distal to the flowprobe and the test compounds were intrarterially administered through the catheters. In this case, the blood pressure, the heart rate and the cardiac contractility were also recorded simultaneously. Each test compound was used by dissolving it in physiological saline, diluted hydrochloric acid or polyethylene glycol in a dose not accompanied by any change in the blood pressure, the heart rate and the cardiac contractility.

platelets = experiment: Effect of compounds on platelet aggregation caused by collagen; format: cell-based, healthy volunteers; details: Homo sapiens, collagen 1 μg/ml, read-out: inhibition rate of platelet aggregation
Description: Effect of compounds on platelet aggregation
Using platelets obtained from healthy volunteers, effect of compounds on platelet aggregation caused by collagen (1 μg/ml) was examined.

| SMILES | activation at 100 µM [1] | activation at 10 µM [1] | activation at 1 µM [1] | Change in Blood Pressure (Anesthetized Dog; 10 μg/kg) | Change in Cardiac Contractility (LV dp/dt max) (Anesthetized Dog; 10 μg/kg) | Change in Heart Rate (Anesthetized Dog; 10 μg/kg) | Change in Blood Pressure (Anesthetized Dog; 30 μg/kg) | Change in Cardiac Contractility (LV dp/dt max) (Anesthetized Dog; 30 μg/kg) | Change in Heart Rate (Anesthetized Dog; 30 μg/kg) | Change in Blood Pressure (Anesthetized Dog; 100 μg/kg) | Change in Cardiac Contractility (LV dp/dt max) (Anesthetized Dog; 100 μg/kg) | Change in Heart Rate (Anesthetized Dog; 100 μg/kg) | other results |
| --- | --- | --- | --- | --- | --- | --- | --- | --- | --- | --- | --- | --- | --- |
| Cc1cn2cc(-c3cc(C#N)c(=O)[nH]c3C)ccc2n1 [Example 7, 1,2-Dihydro-6-methyl-5-(2-methylimidazo[1,2-a]pyridin-6-yl)-2-oxo-3-pyridinecarbonitrile] | 130% | 95.7% | 56.7% | 0% | 21% | 8% | -13% | 114% | 18% | – | – | – | – |
| CCc1[nH]c(=O)c(C#N)cc1-c1ccc2nccn2c1 [Example 6, 1,2-Dihydro-6-ethyl-5-(imidazo[1,2-a]pyridin-6-yl)-2-oxo-3-pyridinecarbonitrile] | – | – | – | -1% | 14% | 0% | -2% | 30% | 5% | -7% | 58% | 10% | – |
| Cc1[nH]c(=O)c(C#N)cc1-c1ccc2nccn2c1 [Example 1, 1,2-Dihydro-5-(imidazo[1,2-a]pyridin-6-yl)-6-methyl-2-oxo-3-pyridinecarbonitrile] | 129% | 88% | 40.7% | 0% | 16% | 6% | -5% | 68% | 15% | -17% | 97% | 22% | death in acute toxicity test (mice): no death was noted; death in acute toxicity test (rats): no death was noted; Coronary Blood Flow ([2]; dose 3 ug): 25 Δ%; Femoral Blood Flow ([2]; dose 3 ug): 18 Δ%; Coronary Blood Flow ([2]; dose 10 ug): 63 Δ%; Femoral Blood Flow ([2]; dose 10 ug): 51 Δ%; Femoral Blood Flow ([2]; dose 30 ug): 76 Δ%; inhibition at 1 µM (platelets; 1×10^-6 M): 41%; inhibition at 3 µM (platelets; 3×10^-6 M): 90%; inhibition at 0.3 µM (platelets; 3×10^-7 M): 14% |
| Cc1[nH]c(=O)ccc1-c1ccc2nccn2c1 [Example 10, 1,2-Dihydro-6-methyl-5-(imidazo[1,2-a]pyridin-6-yl)-2-oxo-pyridine] | 110% | 76.3% | 37.9% | -2% | 11% | 2% | -5% | 25% | 4% | – | – | – | – |
| COc1nc(C)c(-c2ccc3nccn3c2)cc1C#N [Example 14, 5-(Imidazo[1,2-a]pyridin-6-yl)-2-methoxy-6-methyl-3-pyridinecarbonitrile] | – | – | – | – | – | – | – | – | – | – | – | – | Change in Blood Pressure (Anesthetized Dog; 300 μg/kg): -6%; Change in Cardiac Contractility (LV dp/dt max) (Anesthetized Dog; 300 μg/kg): 10%; Change in Heart Rate (Anesthetized Dog; 300 μg/kg): 6%; Change in Blood Pressure (Anesthetized Dog; 1000 μg/kg): -4%; Change in Cardiac Contractility (LV dp/dt max) (Anesthetized Dog; 1000 μg/kg): 41%; Change in Heart Rate (Anesthetized Dog; 1000 μg/kg): 0% |
| CCc1[nH]c(=O)c(C#N)cc1-c1ccc2nc(C)cn2c1 [Example 2, 1,2-Dihydro-6-ethyl-5-(2-methylimidazo[1,2-a]pyridin-6-yl)-2-oxo-3-pyridinecarbonitrile] | 106% | 73.5% | 34.1% | – | – | – | – | – | – | – | – | – | – |
